Test results: EP0457908A1, “HYDROCHLORIDE 2,3,3a,4,5,6-HEXAHYDRO-8-CYCLOHEXYL-1H-PYRAZINO (3,2,1-j,k)CARBAZOL, METHOD OF OBTAINING IT AND A PHARMACEUTICAL PREPARATION OF ANTIDEPRESSIVE ACTION BASED ON IT” (priority 1989, dated 1991)
Counter-ions that a name gives are not always drawn.

Key:
male white mice = assay: Hyperlocomotion induced by d,l-amphetamine; assay type: in vivo; conditions: 10-20 minutes after d,l-amphetamine 2.5 mg/kg intraperitoneally, distilled water 1,924.5±177.6
Protocol: The influence on hyperlocomotion induced by d,l-amphetamine was studied in experiments on male white mice with a mass of 20-22 g.
The locomotive activity of the mice was recorded 10-20 minutes after administration of d,l-amphetamine for 10 minutes.

cats = assay: Bioelectrical activity of the brain (electroencephalogram), cats; assay type: in vivo; conditions: for effect on the electroencephalogram: dose and species not given
Description: The study of the effect on the bioelectrical activity of the brain was effected in acute experiments using 8 consious cats immobilized with diplacin with a mass of 2.5-3.4 kg under conditions of a controlled breathing and 25 rabbits with a mass of 2.6-3.1 kg with chronically implanted electrodes. Recorded on an electroencephalograph was an electroencephalogram of the sensomotor, parietal and visual regions of the cerebral cortex in cats, plus that of the reticular formation of the midbrain, dorsal hippocamp and amygdala in rabbits.

white mice [1] = assay: Porsolt's swimming behaviour test (duration of immobilization); assay type: in vivo; conditions: for Duration of immobilization, %: distilled water = 100
Protocol: The effect of the compound according to the present invention on the duration of immobilization in Porsolt's swimming behaviour test (Porsolt et al., 1977) in experiments on white mice of both sexes with a mass of 16-18 g. […] Sixty minutes after the last (or a single) administration of the preparations, the mice were placed into cylinders (10 cm diameter, 25 cm height) filled with water to 6 cm. The temperature of water was 21-22 °C. […] The number and duration of all stops in swimming (immobilization) over the observation period were recorded.

[2] = Pharmacokinetics: penetration into and stay in the brain tissues; conditions: in vivo
white rats = assay: Stereotypy induced by d,l-amphetamine; assay type: in vivo; conditions: distilled water = 100
Protocol: To evaluate the influence on stereotypy, the experiments were carried out on white rats of both sexes with a mass of 100-150 g. […] Stereotypy was assessed in points of from to 3 (after Janssen et al., 1967).

white mice [3] = assay: Enhancement of the effect of 5-hydroxytryptophane (head shaking); assay type: in vivo; conditions: Mus musculus, po, 25 min; orally, 60 minutes prior to 5-hydroxytryptophane 50 mg/kg intraperitoneally; read 25 minutes after; read-out: ED₅₀, the dose at which head shaking were noticed in 50% of the animals
Protocol: The compound according to the present invention was tasted for the exciting effect of 5-hydroxytryptophane (head shaking).
The compound according to the present invention in the doses of 1.0, 2.5, 5.0 and 10 mg/kg was administered orally 60 minutes prior to an intraperitoneal administration of 5-hydroxytryptophane (50 mg/kg).

male rats = assay: Conditional reflex of passive avoidance after amnesia (antiamnestic effect); assay type: in vivo; conditions: for Number of rats, %, remained on the platform for 1 minute, 2.5 hours after administration of scopolamine (1 mg/kg hypodermally): amnesia control 10±3.3, distilled water 85±2.0; for Number of rats, %, remained on the platform for 1 minute, 1 day after electric shock: electroshock alone 14.2±3.0, distilled water 85±2.0
Protocol: Also studied was the effect of the compound according to the present invention on reproduction of the memory traces upon amnesia.
The experiments were carried out using male rats of a mass of 180-220 g.
The antiamnestic effect of the compound according to the present invention was assessed by the method of a conditional reflex of a passive avoidance with a subsequent use, as amnesic factors, of an electric shock (50 mA, 0.3 ms) through ear electrodes or scopolamine (1 mg/kg hypodermally).
The learning of the conditional reflex of a passive avoidance was effected by the "Step-down" method (Izquerdo, 1981) in an experimental unit consisting of a 30x30x40 cm chamber with an electrified floor having in its centre a plastic platform of 10x15x0.5 cm size. A rat was placed onto the platform and a latent period of its escape therefrom was recorded (in seconds). When escaping the platform onto the floor, the rat was subjected to an electric irritation on paws (0.5 mA, 10 seconds) that made it to climb the platform. The learning course took 6 sessions, each of 3 minutes duration. The conditional response was regarded as acquired if an animal remained on the platform for 1 minute.
The amnesic effect was produced immediately after learning course and 30 minutes thereafter the compound according to the present invention was administered in the doses of 1 and 3 mg/kg or (for comparison) pyracetam was administered in the doses of 100, 300, 600 and 1,000 mg/kg. The reproduction of the memory trace was assessed 24 hours after the electric shock and 2.5 hours after administration of scopolamine.

[4] = 5-days' administration, 10.0 mg/kg orally (dose from row order)
[5] = 5-days' administration, 25.0 mg/kg orally (dose from row order)
[6] = 18-days' administration, 10.0 mg/kg orally (dose from row order)
[7] = 18-days' administration, 25.0 mg/kg orally (dose from row order)
[8] = single administration, 10.0 mg/kg orally
[9] = single administration, 25.0 mg/kg orally

With Cc1ccc2c(c1)c1c3n2CCNC3CCC1 (stereo not shown) [Pyrazidol, 2,3,3a,4,5,6-hexahydro-8-methyl-1H-pyrazino(3,2,1-j,k)-carbazole hydrochloride] the “Average value of locomotor activity of a group of 5 mice for 10 minutes” value (“Average value” below) (male white mice; 5.0 mg/kg oral) was 1,440.0±380.2, the “Average value” value (male white mice; 10.0 mg/kg oral) was 1,926.0±119.9 and the “effect on the electroencephalogram of the cortex and subcortical structures of the brain” value (cats; 1 to 5 mg/kg intravenously, species not specified) was “predominantly activating effect”. For the same compound, the “Duration of immobilization, Seconds, M±m” value (white mice [1]; [4]) was 142 ± 5.7 s, the “Duration of immobilization, %” value (white mice [1]; [4]) was 87% and the “Duration of immobilization, Seconds, M±m” value (white mice [1]; [5]) was 116 ± 8.1 s. For the same compound, the “Duration of immobilization, %” value (white mice [1]; [5]) was 71%, the “Duration of immobilization, Seconds, M±m” value (white mice [1]; [6]) was 129 ± 8.0 s and the “Duration of immobilization, %” value (white mice [1]; [6]) was 70%. The “Duration of immobilization, Seconds, M±m” value (white mice [1]; [7]) was 112 ± 8.6 s, the “Duration of immobilization, %” value (white mice [1]; [7]) was 61% and the “Duration of immobilization, Seconds, M±m” value (white mice [1]; [8]) was 164 ± 5.9 s. For the same compound, the “Duration of immobilization, %” value (white mice [1]; [8]) was 93%, the “Duration of immobilization, Seconds, M±m” value (white mice [1]; [9]) was 144 ± 9.9 s and the “Duration of immobilization, %” value (white mice [1]; [9]) was 82%. For the same compound, the “time the drug remains in the brain tissues” value [2] was “at most 1.5 hours”, the “Stereotypy (tolal, for 4 measurements for 4 hours after hypodermal administration of d,l-amphetamine), %” value (from here on “Stereotypy … %”) (white rats; oral dose 5.0 mg/kg) was 165% and the “Stereotypy … %” value (white rats; oral dose 10.0 mg/kg) was 210%. For the same compound, the ED50 (white mice [3]) was 20 mg/kg.
In the case of CN(C)CCC=C1c2ccccc2CCc2ccccc21 [amitryptyline, reference compound], the “effect on the electroencephalogram” value (cats) is reported as “synchronizing effect”.
In the case of NC(=O)CN1CCCC1=O [Pyracetam], the “Number of rats, %, remained on the platform for 1 minute, 2.5 hours after administration of scopolamine (1 mg/kg hypodermally)” value (male rats; 100 mg/kg oral) is reported as 12±5.5%, the “Number of rats, %, remained on the platform for 1 minute, 1 day after electric shock” value (male rats; 100 mg/kg oral) is reported as 12±3.3% and the “Number of rats, %, remained on the platform for 1 minute, 2.5 hours after administration of scopolamine (1 mg/kg hypodermally)” value (male rats; 300 mg/kg oral) is reported as 13±1.6%. For the same compound, the “Number of rats, %, remained on the platform for 1 minute, 1 day after electric shock” value (male rats; 300 mg/kg oral) was 13±4.2%, the “Number of rats, %, remained on the platform for 1 minute, 2.5 hours after administration of scopolamine (1 mg/kg hypodermally)” value (male rats; 600 mg/kg oral) was 20±5.5% and the “Number of rats, %, remained on the platform for 1 minute, 1 day after electric shock” value (male rats; 600 mg/kg oral) was 12±3.3%. The “Number of rats, %, remained on the platform for 1 minute, 1 day after electric shock” value (male rats; 1000 mg/kg oral) was 46±6.4%.
In the case of CN(C)CCCN1c2ccccc2CCc2ccccc21 [Imipramine, N-(3-dimethylaminopropyl)-aminodibenzyl hydrochloride], the “Average value” value (male white mice; 5.0 mg/kg oral) is reported as 1,440.3±365.2, the “Average value” value (male white mice; 10.0 mg/kg oral) is reported as 2,024.5±221.7 and the “effect on the electroencephalogram” value (cats) is reported as “synchronizing effect”. For the same compound, the “Duration of immobilization, Seconds, M±m” value (white mice [1]; [4]) was 92 ± 5.9 s, the “Duration of immobilization, %” value (white mice [1]; [4]) was 59% and the “Duration of immobilization, Seconds, M±m” value (white mice [1]; [5]) was 61 ± 6.3 s. The “Duration of immobilization, %” value (white mice [1]; [5]) was 39%, the “Duration of immobilization, Seconds, M±m” value (white mice [1]; [6]) was 96 ± 9.8 s and the “Duration of immobilization, %” value (white mice [1]; [6]) was 52%. The “Duration of immobilization, Seconds, M±m” value (white mice [1]; [7]) was 66 ± 9.8 s, the “Duration of immobilization, %” value (white mice [1]; [7]) was 36% and the “Duration of immobilization, Seconds, M±m” value (white mice [1]; [8]) was 131 ± 5.6 s. For the same compound, the “Duration of immobilization, %” value (white mice [1]; [8]) was 88%, the “Duration of immobilization, %” value (white mice [1]; [9]) was 70% and the “Stereotypy … %” value (white rats; oral dose 5.0 mg/kg) was 200%. The “Stereotypy … %” value (white rats; oral dose 10.0 mg/kg) was 306%.
